Assay [1] addresses recombinant HCV NS5B (HCV RNA-dependent RNA polymerase) (Hepatitis C virus genotype 1b, UniProt P26663). Nature of the assay: biochemical.
Assay [2] concerns the target T1, HCV NS3 enzyme (ATPase activity of HCV NS3 helicase) (Hepatitis C virus genotype 1b, UniProt P26663). Nature of the assay: ATPase activity of HCV NS3 helicase, Malachite Green Assay. The settings on record: free inorganic phosphate release, 30 min at 37 C, 200 μM ATP, 3 nM enzyme, read-out: Anti-ATPase (Malachite Green assay) EC50. The format is biochemical. The procedure:
(§1) Evaluation of Analogues for measurement of ATPase activity of HCV NS3 helicase
The measurement of ATPase activity was performed by measuring the amount of free inorganic phosphate released during the conversion of ATP to ADP by the HCV NS3 ATPase activity. The assay is as follows: In a 96-well microtiter-plate, compounds were dissolved at various concentrations in a final volume of 25 μl of ATPase buffer containing 400 μM ATP. The enzymatic reaction was initiated by the addition of 25 μl of ATPase buffer containing 6 nM of HCV NS3 enzyme without ATP to the wells followed by an incubation of 30 min. at 37 C. Essentially, the final concentration of the ATPase buffer components are as follows: 44 mM MOPS pH 7.0, 8.8 mM NaCl, 2.2 mM MgCl2, 125 μg/ml poly A, 1% DMSO, 200 μM ATP, and 3 nM HCV NS3 enzyme. The reaction was stopped by the addition of 100 μl of Biomol Green™ reagent (BIOMOL® Research Laboratories Inc., Plymouth Meeting, Pa.). In order to allow the development of the green color, the plate was incubated for 15 min. at room temperature. Then the plate was read on a micro-plate reader at 620 nm. […] The signal recorded was also corrected from the background signal obtained with control samples with compound only. The IC50 was determined from dose-response curves using six to eight concentrations per compound. […]

Assay [3] addresses T1, HCV NS3 enzyme (ATPase activity of HCV NS3 helicase). Nature of the assay: ATPase activity of HCV NS3 helicase, HPLC Assay. The format is biochemical. The settings on record: ADP produced measured by paired-ion HPLC, 1 nM enzyme, read-out: Anti-ATPase (HPLC method) EC50. The procedure:
as §1
The measurement of HCV NS3 ATPase activity was performed by measuring the amount of ADP produced during the conversion of ATP to ADP by the HCV NS3 enzyme using paired-ion HPLC on a reverse phase column. […]. The mobile phase was an isocratic solution of 0.15 M triethylamine, 6% methanol, and phosphoric acid to pH 5.5. ADP and ATP peaks were resolved using the Aqua 5μ, C18, 125 Å, (150×4.6 mm) reverse phase column. The extent of ATP conversion to ADP was evaluated by measuring the area under the ADP peak produced which was detected at 259 nm. The amount of ADP was corrected for the presence of ADP contaminant in the original ATP solution. […] The IC50 was determined from dose-response curves using six to eight concentrations per compound. Curves were fitted to data points using a non-linear regression analysis, and IC50s were interpolated from the resulting curves using GraphPad Prism software, version 2.0 (GraphPad Software Inc, San Diego, Calif.).

Where [4] appears, read: HCV polymerase activity, list of compounds of Example 27, read-out: IC50 (polymerase activity).
The mark [5] stands for this setting: related polymerase activity (Example 27 list), read-out: IC50.

Read-outs that look alike come from different tables or passages of the source.

Sequence of recombinant HCV NS5B (HCV RNA-dependent RNA polymerase) (P26663 2420-3010 limits assumed): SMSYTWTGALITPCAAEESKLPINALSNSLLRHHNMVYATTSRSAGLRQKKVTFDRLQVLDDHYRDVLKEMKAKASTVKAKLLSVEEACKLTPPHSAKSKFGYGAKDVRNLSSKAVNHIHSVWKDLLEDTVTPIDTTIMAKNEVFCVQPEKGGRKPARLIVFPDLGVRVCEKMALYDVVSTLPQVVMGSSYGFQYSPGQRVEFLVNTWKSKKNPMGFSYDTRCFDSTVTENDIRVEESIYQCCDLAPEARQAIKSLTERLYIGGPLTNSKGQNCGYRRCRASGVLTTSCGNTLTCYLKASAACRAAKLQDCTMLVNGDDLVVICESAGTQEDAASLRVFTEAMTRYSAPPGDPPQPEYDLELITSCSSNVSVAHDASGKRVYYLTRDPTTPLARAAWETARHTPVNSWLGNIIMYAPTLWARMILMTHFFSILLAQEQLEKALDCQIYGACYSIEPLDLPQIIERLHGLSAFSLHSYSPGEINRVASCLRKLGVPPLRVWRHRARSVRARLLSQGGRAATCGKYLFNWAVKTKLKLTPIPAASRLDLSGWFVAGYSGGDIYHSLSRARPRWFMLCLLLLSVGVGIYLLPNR
T1 sequence (P26663 1027-1657 limits assumed): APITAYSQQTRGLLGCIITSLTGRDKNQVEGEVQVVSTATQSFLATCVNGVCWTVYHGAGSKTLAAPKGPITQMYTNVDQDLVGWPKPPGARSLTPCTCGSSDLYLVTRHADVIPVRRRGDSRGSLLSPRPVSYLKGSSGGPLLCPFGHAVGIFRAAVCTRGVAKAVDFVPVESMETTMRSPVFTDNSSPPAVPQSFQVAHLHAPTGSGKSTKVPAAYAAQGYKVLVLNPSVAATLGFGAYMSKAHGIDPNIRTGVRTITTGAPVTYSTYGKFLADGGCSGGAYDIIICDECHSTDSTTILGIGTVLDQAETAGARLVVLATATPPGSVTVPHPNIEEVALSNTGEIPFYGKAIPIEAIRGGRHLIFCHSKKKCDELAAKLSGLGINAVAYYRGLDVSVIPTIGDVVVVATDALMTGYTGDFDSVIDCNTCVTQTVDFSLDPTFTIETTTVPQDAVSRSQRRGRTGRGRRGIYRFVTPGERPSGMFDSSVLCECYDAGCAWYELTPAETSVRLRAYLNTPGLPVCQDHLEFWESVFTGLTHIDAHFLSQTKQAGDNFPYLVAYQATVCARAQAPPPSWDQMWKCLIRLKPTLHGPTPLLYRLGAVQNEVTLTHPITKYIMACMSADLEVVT

What is called IC50 is the concentration that inhibits the measured activity by half. Consider `CC(C)N(C(=O)c1cc(-c2ccccc2)sc1C(=O)O)c1ccc(Cl)cc1Cl` [Compound 583, 3-[(2,4-DICHLORO-PHENYL)-ISOPROPYL- CARBAMOYL]-5-PHENYL-THIOPHENE-2- CARBOXYLIC ACID], for which the IC50 in assay [1] (setting [4]) is less than 5 µM.
As to `Cc1ccc(N(C)C(=O)c2cc(-c3ccccc3)sc2C(=O)O)cc1` [Compound 584, 3-(METHYL-P-TOLYL-CARBAMOYL)-5- PHENYL-THIOPHENE-2-CARBOXYLIC ACID], the IC50 in assay [1] (setting [4]) fell in the range of 5 to 20 µM.
With `CN(C(=O)c1cc(-c2ccccc2)sc1C(=O)O)c1ccc(Cl)cc1Cl` [Compound 585, 3-[(2,4-DICHLORO-PHENYL)-METHYL- CARBAMOYL]-5-PHENYL-THIOPHENE-2- CARBOXYLIC ACID], the IC50 in assay [1] (setting [4]) lay in the range of 5 to 20 µM.
Broadly, the EC50 is the concentration that produces a half-maximal response. As to `Cc1cc(S(=O)(=O)Nc2cc(-c3ccc(Cl)cc3)sc2C(=O)O)c(C)cc1Cl` [Compound #14, 3-(4-Chloro-2,5-dimethyl-benzenesulfonylamino)-5-(4-chloro-phenyl)-thiophene-2-carboxylic acid], the IC50 in assay [1] (setting [5]) is less than 5 µM. Also, the EC50 in assay [2] was greater than 20 µM.
`Cc1cc(S(=O)(=O)Nc2cc(-c3ccc(CC(C)C)cc3)sc2C(=O)O)c(C)cc1Cl` [Compound #19, 3-(4-Chloro-2,5-dimethyl-benzenesulfonylamino)-5-(4-isobutyl-phenyl)-thiophene-2-carboxylic acid]: the IC50 in assay [1] (setting [5]) was 5 to 20 µM. Moreover, the EC50 in assay [2] was less than 5 µM; in assay [3], 5 to 20 µM.
As for `CC(C)Cc1ccc(-c2cc(NS(=O)(=O)c3ccc(Br)cc3F)c(C(=O)O)s2)cc1` [Compound #223, 3-(4-Bromo-2-fluorobenzenesulfonyl-amino)-5-(4-isobutylphenyl)-thiophene-2-carboxylic acid], the IC50 in assay [1] (setting [5]) fell in the range of 5 to 20 µM. In addition, in assay [3], the EC50 is less than 5 µM.
Consider `Cc1cc(Br)ccc1S(=O)(=O)Nc1cc(-c2ccc(CC(C)C)cc2)sc1C(=O)O` [Compound #224, 3-(4-Bromo-2-methylbenzenesulfonyl-amino)-5-(4-isobutylphenyl)-thiophene-2-carboxylic acid], for which, in assay [1] (setting [5]), the IC50 was greater than 20 µM. In assay [3], the EC50 was 5 to 20 µM.
On to `COc1cccc(S(=O)(=O)Nc2cc(-c3ccc(CC(C)C)cc3)sc2C(=O)O)c1` [Compound #225], for which, in assay [1] (setting [5]), the half-maximal inhibitory concentration (IC50) was greater than 20 µM. Moreover, the EC50 in assay [3] was greater than 20 µM.
Consider `CC(C)Cc1ccc(-c2cc(NS(=O)(=O)c3cc(OCC(F)(F)F)ccc3OCC(F)(F)F)c(C(=O)O)s2)cc1` [Compound #227, 3-[2,5-Bis-(2,2,2-trifluoroethoxy)-benzenesulfonylamino]-5-(4-isobutyl-phenyl)-thiophene-2-carboxylic acid], for which, in assay [1] (setting [5]), the IC50 was greater than 20 µM. In addition, the EC50 in assay [3] was greater than 20 µM.
Take `CC(C)Cc1ccc(-c2cc(NS(=O)(=O)c3ccc(C#N)cc3Cl)c(C(=O)O)s2)cc1` [Compound #228, 3-(2-Chloro-4-cyanobenzenesulfonyl-amino)-5-(4-isobutylphenyl)-thiophene-2-carboxylic acid]: the concentration for half-maximal inhibition (IC50) in assay [1] (setting [5]) is greater than 20 µM. For the same compound, the EC50 in assay [3] is greater than 20 µM.
In the case of `CC(C)Cc1ccc(-c2cc(NS(=O)(=O)c3ccc(-c4cc(C(F)(F)F)on4)s3)c(C(=O)O)s2)cc1` [Compound #581, 5-(4-Isobutyl-phenyl)-3-[5-(5-trifluoromethyl-isoxazol-3-yl)-thiophene-2-sulfonylamino]-thiophene-2-carboxylic acid], the EC50 in assay [3] was in the range of 5 to 20 µM.
On to `CC(C)Cc1ccc(-c2cc(NS(=O)(=O)c3ccc(F)c(F)c3F)c(C(=O)O)s2)cc1` [Compound #582, 5-(4-Isobutyl-phenyl)-3-(2,3,4-trifluoro-benzenesulfonylamino)-thiophene-2-carboxylic acid], for which, in assay [3], the EC50 is greater than 20 µM.

Source of the values: patent publication US6881741B2 (ViroChem Pharma Inc., priority 2001, dated 2005).
